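Assay format: 96-well plates, 48-hour exposure. GI50 = concentration required for 50% inhibition of growth. TGI marks complete inhibition of growth.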
Columns and labels:
Assay in all cases: NCI tumour cell line growth inhibition, 48 h
[1] = tested on: HCC-2998 colon
[2] = tested on: LOX IMVI melanoma
[3] = tested on: M14 melanoma
[4] = tested on: MDA-MB-435
[5] = tested on: NCI-H460 lung
[6] = tested on: NCI/ADR-RES ovarian
[7] = tested on: SF-295 CNS
[8] = tested on: SK-OV-3 ovarian
[9] = tested on: TK-10 renal
[10] = tested on: UACC-62 melanoma

Structure (SMILES) | GI50 [1] [µM] | TGI [1] [µM] | GI50 [2] [nM] | TGI [2] [µM] | GI50 [3] [nM] | TGI [3] [µM] | GI50 [4] [nM] | TGI [4] [µM] | GI50 [5] [µM] | TGI [5] [µM] | GI50 [6] [µM] | TGI [6] [µM] | GI50 [7] [µM] | TGI [7] [µM] | GI50 [8] [µM] | TGI [8] [µM] | GI50 [9] [µM] | TGI [9] [µM] | GI50 [10] [nM] | TGI [10] [µM]
COc1ccc(-c2nc3ccccn3c2/C=C/C(=O)c2cc(OC)c(OC)c(OC)c2)cc1 | 8.27 | 42 | 6050 | > 100 | 9800 | 28.6 | 5760 | 27.6 | 4.09 | 31 | 3.36 | 29.4 | 15.2 | 69.5 | 14.8 | > 100 | 4.16 | > 100 | 5580 | > 100
CCN(C(=O)c1cc(F)ccc1Oc1cncnc1N1CC2(CCN(CC3CCC(NS(=O)(=O)CC)CC3)CC2)C1)C(C)C (centres undefined) | > 100 | > 100 | > 100000 | > 100 | > 100000 | > 100 | > 100000 | > 100 | > 100 | > 100 | > 100 | > 100 | > 100 | > 100 | > 100 | > 100 | > 100 | > 100 | > 100000 | > 100
COc1ccc(/C(C#N)=C/c2ccc(OC)c(OC)c2)cc1 | – | > 100 | – | > 100 | – | > 100 | – | > 100 | – | > 100 | – | > 100 | – | > 100 | – | > 100 | – | > 100 | – | > 100
C[C@@H](CO)[C@@H]1CCC=C2CC[C@]3(C)[C@H](CC[C@@H]4[C@@]5(C)CCCNC(C)(C)[C@@H]5CC[C@]43C)[C@H]21 | 1.62 | 3.11 | 1740 | 3.17 | 2310 | 5.13 | 1760 | 3.53 | 1.81 | 3.39 | 2.05 | 4.45 | 1.66 | 3.11 | 12.8 | 30.8 | 8.36 | 24.8 | 1730 | 3.18
O=C(NCc1ccc(Cn2c(=O)sn(-c3ccccc3)c2=O)cc1)OCc1ccc2c(Br)cc(Br)c(O)c2n1 | 1.8 | 3.41 | 171 | 0.348 | 412 | 1.51 | 427 | 1.59 | 1.48 | 3.37 | 1.2 | 7.06 | 1.6 | 3.06 | 3.61 | 14 | 0.404 | 1.39 | 1030 | 2.24
C=C1CC/C=C(\C)C(=O)C[C@@H]2[C@@H]1CC2(C)C | – | 12.7 | – | 7.06 | – | 19.7 | – | 5.18 | – | 12 | – | 46.6 | – | 33.4 | – | > 57.5 | – | 17.1 | – | 24.2
NC(=O)c1cc(-c2ccc(F)cc2)cc(-c2ccncc2)c1N | > 25 | > 25 | > 25000 | > 25 | > 25000 | > 25 | > 25000 | > 25 | > 25 | > 25 | > 25 | > 25 | > 21.7 | > 25 | > 25 | > 25 | > 25 | > 25 | > 25000 | > 25
CC1OC(OC2C(O[C@H]3CC[C@@]4(C)C(=CC[C@H]5[C@@H]6C[C@@H]7O[C@]8(CC[C@H](C)CN8)[C@@H](C)[C@@H]7[C@@]6(C)CC[C@@H]54)C3)OC(CO)C(O)C2OC2OC(CO)C(O)C(O)C2O)C(O)C(O)C1O (some centres undefined) | – | 32.2 | – | 83.6 | – | 37.8 | – | 50.7 | – | 31.6 | – | 32.5 | – | 34.1 | – | 30.5 | – | 31.1 | – | 32.1
CN(CC(=O)N(Cc1ccc(C2CCCCC2)cc1)c1ccc(C(=O)O)c(O)c1)S(=O)(=O)c1c(F)c(F)c(F)c(F)c1F | 2.37 | 5.72 | 1600 | 3.01 | 3070 | 13 | 3390 | 15.8 | 16.4 | 36.5 | 17.2 | 38.1 | 17.4 | 37.2 | 16.5 | 31.1 | 16.5 | 30.4 | 3180 | 12.1
Nc1nc(-c2ccccc2)nc(N)c1N=O | 14.1 | 27.6 | 3140 | 13 | 5680 | 19.5 | 4570 | 51.9 | 8.02 | 27.9 | 6.44 | 59.6 | 18.1 | 52.9 | 11.9 | 26 | 4.68 | 14.8 | 3600 | 14
CC(=O)O[C@]1(C(C)=O)CC[C@H]2[C@@H]3C=C(C)C4=CC(=O)CC[C@]4(C)[C@H]3CC[C@@]21C | > 100 | > 100 | > 100000 | > 100 | > 85600 | > 100 | > 100000 | > 100 | 98.5 | > 100 | 46.9 | > 100 | > 83.3 | > 100 | > 91.9 | > 100 | > 77.6 | > 100 | > 71800 | > 100
COc1cc(Nc2ccnc(NCCCNc3ccnc4cc(Cl)ccc34)n2)cc(OC)c1 | 1.58 | 3.36 | 1370 | 2.82 | 1700 | 3.46 | 1510 | 2.88 | 1.46 | 3.77 | 2.9 | 12.5 | 1.37 | 2.78 | 2.42 | 6.08 | 1.81 | 3.63 | 1670 | 3.13
CN1c2ccccc2C(C)(C)C12C=Cc1cc(O)ccc1O2 (centres undefined) | 4.22 | 9.47 | 3410 | 12.6 | 2350 | 5.52 | 2100 | 4.49 | 2.28 | 6.45 | 1.96 | 7.14 | 2.71 | 12.8 | 3.41 | 8.81 | 2.94 | 9.63 | 2560 | 11.5
CN(C)c1ccc(Nc2cc(-c3cccc(OC(F)(F)F)c3)nc3ccc(N4CCCC4)cc23)cc1 | 1.85 | 3.36 | 1730 | 3.25 | 1700 | 3.32 | 1820 | 3.37 | 1.92 | 3.66 | 1.92 | 3.88 | 1.83 | 3.57 | 13.1 | 25.7 | 1.84 | 3.3 | 1800 | 3.29
Nc1nc(-c2ccc(F)cc2)c(-c2ccc3ncccc3n2)s1 | > 25 | > 25 | 18000 | > 25 | > 25000 | > 25 | > 25000 | > 25 | 8.7 | > 25 | 21.7 | > 25 | > 21 | > 25 | 6.82 | > 25 | 5.62 | 17.1 | > 23200 | > 25
CCC1CCc2nc3sc(C(=O)Nc4cccc(F)c4)c(N)c3cc2C1 (centres undefined) | > 100 | > 100 | > 100000 | > 100 | 402 | > 100 | 110 | 0.616 | > 100 | > 100 | > 100 | > 100 | 0.901 | > 100 | > 100 | > 100 | > 100 | > 100 | 376 | > 100
COC(=O)C1=C(C)NC(C)=C(C(=O)OC)C1/C=C(Cl)/C=C/c1ccccc1 | 14 | 27.2 | 15100 | 28.8 | 16200 | 30.5 | 18800 | 37.1 | 18.6 | 45.4 | 18.4 | 44.3 | 17.3 | 38.6 | 28.2 | > 100 | 22.7 | 65.9 | 16100 | 30.8
COc1ccc(OC)c(/C=C(/C)[N+](=O)[O-])c1 | 1.84 | 3.41 | 1340 | 3.06 | 2140 | 4.24 | 2290 | 6.8 | 3.41 | 12.7 | 3.22 | 11.5 | 11.2 | 24.8 | 6.41 | 19 | 1.96 | 3.47 | 2060 | 4.54
COc1cc(C2=C(C#Cc3ccccc3)COC2=O)cc(OC)c1OC | 12.4 | 25.8 | 738 | 3.92 | 1770 | 11.7 | 302 | – | 3.3 | > 100 | 5.43 | 22.2 | 0.687 | – | 20.4 | > 100 | 1.9 | 5.97 | 288 | 4.12
N#Cc1c(N)nc(N2CCOCC2)c(C#N)c1-c1cccnc1 | 8.8 | 49.4 | 63100 | > 100 | 71200 | > 100 | > 100000 | > 100 | > 100 | > 100 | 81.7 | > 100 | 44.4 | > 100 | 47.8 | 99.6 | > 100 | > 100 | 43400 | > 100
Cn1ccnc1C(=O)/C=C/c1ccccc1 | 2.36 | 5.38 | 2990 | 14.3 | 3410 | 10.4 | 3210 | 10.2 | 3.2 | 11.4 | 3.11 | 8.95 | 11.4 | 29.1 | 4.55 | 35.9 | 5.83 | 19.1 | 7460 | 21.3
CC(=Nc1ccccc1)C1=C(O)C(Cc2ccccc2)NC1=O (centres undefined) | 0.0779 | 0.64 | 57.4 | > 34 | 24.8 | 0.102 | 19.6 | 0.0528 | 0.0375 | 1.26 | 0.03 | 0.117 | 0.0238 | 0.0721 | 0.0537 | > 61.8 | 0.042 | > 100 | 40.4 | > 100
COc1cc(OC)c(/C=C/c2cnc3ccccc3n2)c(OC)c1 | – | > 10 | – | > 10 | – | > 10 | – | > 10 | – | > 10 | – | > 10 | – | > 10 | – | > 10 | – | > 10 | – | > 10
CC[C@@H](C(=O)[C@@H](C)[C@@H](O)[C@H](C)[C@@H]1O[C@@H]([C@@H](CC)C(=O)N(CC)CC)CC[C@@H]1C)C1O[C@]2(C=CC(=O)[C@]3(CC[C@@](C)([C@H]4CC[C@](O)(CC)[C@H](C)O4)O3)O2)[C@H](C)C[C@@H]1C (some centres undefined) | 1.97 | 4.79 | 1580 | 3.17 | – | – | 2910 | 9.95 | 2.11 | 4.94 | 2.82 | 26.9 | 2.26 | 6.51 | 3.87 | > 100 | 3.49 | > 100 | 1830 | 5.81
C=C1CCC2C(C)(C)CCC[C@]2(C)[C@H]1CO (some centres undefined) | 13.5 | 33 | 24900 | 70.2 | 71800 | > 100 | 43200 | > 100 | 59.8 | > 100 | 60.3 | > 100 | > 100 | > 100 | – | – | > 100 | > 100 | > 100000 | > 100
